Values of other authors, collected in patent publication US6384246B1, “Process for the preparation of maltol from plants belonging to the genus Abies” (Council of Scientific & Industrial Research, priority 2001, dated 2002).

Details: in ethylene glycol at ambient temperature

solubility of maltol in ethylene glycol: about 4%
SMILES: Cc1occc(=O)c1O [maltol, 2-methyl-3-hydroxy-4-pyrone]
